Assay results published in US10144713B1, “Bis-cyclic guanidines as antibacterial agents” (UNIVERSITY OF SOUTH FLORIDA, priority 2017, dated 2018).

What was measured:
[1] = test system: Methicillin-resistant S. aureus (MRSA, ATCC 33591); assay: MIC against MRSA; format: cell-based; conditions: Staphylococcus aureus; Gram +; 16 h, 37° C.
Procedure: (§1) Minimum Inhibitory Concentrations (MICs) Against Bacteria.
(§2) The antimicrobial activity of the compounds was tested on the following six bacteria strains: K. pneumoniae (ATCC 13383), P. aeruginosa (ATCC27853), E. coli (ATCC 25922), vancomycin-resistant Enterococcus faecalis(ATCC 700802), Methicillin-resistant S. aureus (MRSA, ATCC 33591), Methicillin-resistant S. epidermidis (MRSE, RP62A). The procedures were followed as reported previously (Hancock et al., Immunobiology 2006, 211, 315-322). Briefly, a single colony of each bacterium was inoculated in 3 mL TSB medium and incubated overnight at 37° C. Then the bacteria culture was diluted at 1:100 and the bacteria were allowed to grow to mid-logarithmic phase. Next, 50 μL of 2-fold serial dilutions of compounds (0.1-25 μg/mL) were added the 96-well plate containing aliquots of 50 μL of bacteria suspension (1×10^6 CFU/mL) in each well. The mixture was incubated at 37° C. for 16 h, and their absorption at 600 nm wavelength was read on a Biotek Synergy HT microtiter plate reader. […] The experiments were repeated at least three times with duplicates each time. HC50 means the concentration causing 50% hemolysis.

[2] = test system: vancomycin-resistant Enterococcus faecalis (ATCC 700802); assay: MIC against VRE; format: cell-based; conditions: Gram +; 16 h, 37° C.
Procedure: as §1, §2

[3] = test system: P. aeruginosa (ATCC27853); assay: MIC against P. aeruginosa; format: cell-based; conditions: Pseudomonas aeruginosa, ATCC27853; Gram −; 16 h, 37° C.
Procedure: as §1, §2

[4] = test system: E. coli (ATCC 25922); assay: MIC against E. coli; format: cell-based; conditions: Escherichia coli, ATCC25922; Gram −; 16 h, 37° C.
Procedure: as §1, §2

[5] = test system: E. coli; assay: Time-kill study; format: cell-based
Procedure: The killing activity was monitored for the first 2 h. The concentrations for compound 11 were 2×MIC, 4×MIC, and 8×MIC, respectively.
Time-kill studies were conducted to investigate the bacterial killing kinetics of compounds 11 and 12 by using E. Coli. Briefly, the bacteria […] grew to mid-logarithmic phase in TSB medium, from which the suspension (10^6 CFU/ml) was made. The suspension was incubated with different concentrations of 11 or 12 for 10 min, 30 min, 1 h and 2 h respectively. The mixtures were diluted by 10^2 to 10^4 fold and spread on TSB agar plates. After incubation at 37° C. overnight, the colonies on the plates were counted and plotted against the incubation time. […] Cell colonies were counted in agar plates at 12.5, 25, and 50 μg/mL. Compound 11 at the concentration of 12.5 or 25 μg/mL completely removed all bacteria in 2 hours, and at 50 μg/mL it completely removed bacteria in 0.5 hour. Compound 12 killed E. Coli completely in 0.5 hour at the concentration of 12.5 μg/mL.

[6] = test system: K. pneumoniae (ATCC 13383); assay: MIC against K. pneumoniae; format: cell-based; conditions: Klebsiella pneumoniae, ATCC13383; Gram −; 16 h, 37° C.
Procedure: as §1, §2

[7] = test system: Methicillin-resistant S. epidermidis (MRSE, RP62A); assay: MIC against MRSE; format: cell-based; conditions: Staphylococcus epidermidis, MRSE; Gram +; 16 h, 37° C.
Procedure: as §1, §2

[8] = test system: human red blood cells (hRBCs); assay: Hemolytic assay; format: cell-based
Procedure: The freshly drawn, K2EDTA treated human red blood cells (hRBCs) were washed with 1×PBS buffer, and centrifuged at 3500 rpm for 10 min. The step was repeated until the supernatant became clear. The supernatant was removed, and the RBCs were diluted into 5% v/v suspension. 50 μL of the suspension was incubated with 50 μL of compounds of different concentrations at 37° C. for 1 h. The mixture was centrifuged at 3500 rpm for 10 min. Subsequently, to 30 μL of the supernatant 100 μL PBS was added, and the absorbance of the mixture at 540 nm was read on a Biotek Synergy HT plate reader. The positive control was 2% Triton X-100, and the negative control was 1×PBS alone. The hemolysis activity was calculated by the formula % hemolysis=(Abssample−AbsPBS)/(AbsTriton−AbsPBS)×100%. The experiment was repeated at least three times with duplicates each time.

[9] = test system: S. aureus ATCC 33591; assay: Thigh burden infection model in neutropenic mice; format: in vivo, CD-1 female mice; conditions: 5 mg/kg i.v. at 1 and 7 h after infection, thighs harvested at 25 h
Procedure: Neutropenic mice (n=4 per group) were inoculated in the posterior thigh muscles with S. aureus ATCC 33591 at 1×10^6 CFU per thigh and then treated with compounds 11 and 12 (5 mg/kg per dose) by i.v. bolus injection in the tail vein at 1 and 7 h after infection.
A thigh burden model was employed to evaluate the in vivo anti-infective activity of compounds 11 and 12, in which the thigh muscle of neutropenic mice was inoculated with S. aureus, followed by intravenous (i.v.) administration of corresponding compounds. All protocols and methods associated with animal experiments were approved by University of South Florida (USF) Institutional Animal Care and Use Committee. The in vivo experiment on the mouse model of the thigh burden infection with MRSA was conducted adapted from previously reported protocol. The CD-1 female mice which were 6 to 8 weeks old and around 25 g in weights were used for the study. Neutropenic Mice were induced by injecting cyclophosphamide (150 mg/kg) intraperitoneally twice at 4 and 1 days before bacterial inoculation. One MRSA colony from tryptic soy agar (TSA) cultures was allowed to grow in tryptic soy broth (TSB) overnight at 37° C., then 100 μL culture was withdrawn and diluted with TSB to a total volume of 4 mL, which was subsequently incubated at 37° C. for another 6 h. […] The formed colonies were counted to calculate CFU per thigh.

[10] = test system: six bacteria strains (K. pneumoniae, P. aeruginosa, E. coli, VRE, MRSA, MRSE); assay: Antimicrobial activity on the panel of six bacteria strains; format: cell-based
Procedure: as §1, §2

CCCCCCN1C(=N)N(CC(=O)Nc2ccc(NC(=O)CN3C[C@H](Cc4ccccc4)N(CCCCCC)C3=N)cc2)C[C@@H]1Cc1ccccc1 [Compound 11]
MIC [1]: 0.33 µg/mL | MIC [2]: 0.75 µg/mL | MIC [3]: 6 µg/mL | MIC [4]: 1.5 µg/mL | time to completely remove all bacteria ([5]; 12.5 μg/mL): 2 h | time to completely remove all bacteria ([5]; 25 μg/mL): 2 h | time to completely remove all bacteria ([5]; 50 μg/mL): 0.5 h | MIC [6]: 1.5 µg/mL | MIC [7]: 0.75 µg/mL | selectivity, hemolytic activity against MIC values of MRSA [8]: 769 folds | decrease in colony-forming unit (CFU) per thigh [9]: 3 log10 CFU | antibacterial activity against the tested bacteria (in words) [10]: potent and broad-spectrum activity
